From patent US20260021103A1, “IKZF2 AND CK1-ALPHA DEGRADING COMPOUNDS AND USES THEREOF” (President and Fellows of Harvard College, priority 2022, published 2026)

Tests used:
[1] = system: endometrioid ovarian cancer cell line A2780; assay: 5-day MTT assay in A2780 cells; type: cell-based; details: A2780, 5-day MTT assay
Method: (§1) Viability Assay: 10,000 cells (e.g., MOLM-13 cells, MLL-AF9 leukemic cells or normal BM cells) were plated onto flat-bottom 96-well plates in media with increasing concentration of compound up to […]. […] For measuring viability, Cell-Titer Glo kit (Promega) or MTT kit was used following manufacturer's instructions. For Cell-Titer Glo assay, cells were cooled to room temperature for 20-30 min, 100 μL of the cultured cells were transferred to opaque-white bottom 96-well plates and mixed with 100 μL of Cell-Titer Glo reagent. The mixture was incubated for 15 min at room temperature and read using a Synergy H1 Hybrid reader (BioTek) for luminescence. Data was normalized as percentage viability and graphed by non-linear regression curves in Graph Pad PRISM 7.0.

DLBCL cell line OCI-LY3 = assay: 5-day MTT assay in OCI-LY3 cells; type: cell-based; details: OCI-LY3, 5-day MTT assay
Method: as §1

IKZF1 = target: T1, IKZF1 (Homo sapiens, UniProt Q13422+Q96SW2); assay: Flow cytometry for measuring degradation, HEK293T GFP-POI reporter cells (IKZF1); type: cell-based; details: 24 h, HEK293T GFP reporter
T1 construct: expressed in transfected cells; host or cells: HEK293T (lentiviral transduction, puromycin selection, FACS sorting)

IKZF2 = target: T2, IKZF2 (Homo sapiens, UniProt Q96SW2+Q9UKS7); assay: Flow cytometry for measuring degradation, HEK293T GFP-POI reporter cells (IKZF2); type: cell-based; details: 24 h, HEK293T GFP reporter
T2 construct: expressed in transfected cells; host or cells: HEK293T (lentiviral transduction, puromycin selection, FACS sorting)

CK1α = target: T3, CK1α (Homo sapiens, UniProt P48729+Q96SW2); assay: Flow cytometry for measuring degradation, HEK293T GFP-POI reporter cells (CK1α); type: cell-based; details: 24 h, HEK293T GFP reporter
T3 construct: expressed in transfected cells; host or cells: HEK293T (lentiviral transduction, puromycin selection, FACS sorting)

CK1α and/or IKZF2 = assay: Panel of reporter cell lines (HEK293T cells expressing protein tagged with eGFP), substrate scope; type: cell-based; details: 100 nM or 1 μM
GSPT1 = GSPT1 (Homo sapiens, UniProt P15170+Q96SW2); assay: Flow cytometry for measuring degradation, HEK293T GFP-POI reporter cells (GSPT1); type: cell-based; set-up: expressed in transfected cells; host or cells: HEK293T; details: 24 h, HEK293T GFP reporter
[2] = In vitro solubility in DMSO; type: physicochemical
MOLM-13 cells = assay: Cell viability assay in MOLM-13 cells; type: cell-based; details: Homo sapiens, read-out: IC50 (cytotoxicity)
Method: Viability Assay: 10,000 cells (e.g., MOLM-13 cells, MLL-AF9 leukemic cells or normal BM cells) were plated onto flat-bottom 96-well plates in media with increasing concentration of compound up to 100 µM. Cells were cultured for 72 h at 37° C. in a 5% CO2 incubator. For measuring viability, Cell-Titer Glo kit (Promega) or MTT kit was used following manufacturer's instructions. For Cell-Titer Glo assay, cells were cooled to room temperature for 20-30 min, 100 μL of the cultured cells were transferred to opaque-white bottom 96-well plates and mixed with 100 μL of Cell-Titer Glo reagent. The mixture was incubated for 15 min at room temperature and read using a Synergy H1 Hybrid reader (BioTek) for luminescence. Data was normalized as percentage viability and graphed by non-linear regression curves in Graph Pad PRISM 7.0.

[3] = system: small cell lung cancer cell line NCI-H1048; assay: 5-day MTT assay in NCI-H1048 cells; type: cell-based; details: NCI-H1048, 5-day MTT assay
Method: as §1

GSPT1, sequence (P15170 whole entry): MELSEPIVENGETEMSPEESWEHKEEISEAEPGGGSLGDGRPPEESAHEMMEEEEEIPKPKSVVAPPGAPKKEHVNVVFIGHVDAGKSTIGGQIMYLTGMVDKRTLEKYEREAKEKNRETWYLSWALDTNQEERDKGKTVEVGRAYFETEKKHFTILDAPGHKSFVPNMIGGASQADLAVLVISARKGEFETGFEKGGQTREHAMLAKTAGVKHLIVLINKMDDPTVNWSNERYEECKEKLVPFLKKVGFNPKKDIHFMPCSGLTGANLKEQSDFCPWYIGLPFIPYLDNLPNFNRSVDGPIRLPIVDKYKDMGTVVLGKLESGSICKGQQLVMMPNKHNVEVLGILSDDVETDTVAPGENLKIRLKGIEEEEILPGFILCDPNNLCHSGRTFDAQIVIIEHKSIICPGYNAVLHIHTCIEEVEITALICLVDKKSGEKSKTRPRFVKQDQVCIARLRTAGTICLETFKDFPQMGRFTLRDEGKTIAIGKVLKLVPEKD
GSPT1, sequence (Q96SW2 whole entry): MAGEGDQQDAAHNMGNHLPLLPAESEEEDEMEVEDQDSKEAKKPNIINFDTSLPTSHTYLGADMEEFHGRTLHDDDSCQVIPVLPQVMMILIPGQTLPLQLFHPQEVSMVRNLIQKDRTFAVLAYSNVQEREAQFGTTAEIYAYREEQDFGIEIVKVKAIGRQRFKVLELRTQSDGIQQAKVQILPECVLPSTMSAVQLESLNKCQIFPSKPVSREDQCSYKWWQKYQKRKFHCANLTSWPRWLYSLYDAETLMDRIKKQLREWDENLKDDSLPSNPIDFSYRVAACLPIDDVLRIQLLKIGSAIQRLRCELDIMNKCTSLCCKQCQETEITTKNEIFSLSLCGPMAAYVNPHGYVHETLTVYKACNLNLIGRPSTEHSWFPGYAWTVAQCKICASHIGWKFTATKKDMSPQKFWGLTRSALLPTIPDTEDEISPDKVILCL
GSPT1, sequence (Q16531 whole entry partner): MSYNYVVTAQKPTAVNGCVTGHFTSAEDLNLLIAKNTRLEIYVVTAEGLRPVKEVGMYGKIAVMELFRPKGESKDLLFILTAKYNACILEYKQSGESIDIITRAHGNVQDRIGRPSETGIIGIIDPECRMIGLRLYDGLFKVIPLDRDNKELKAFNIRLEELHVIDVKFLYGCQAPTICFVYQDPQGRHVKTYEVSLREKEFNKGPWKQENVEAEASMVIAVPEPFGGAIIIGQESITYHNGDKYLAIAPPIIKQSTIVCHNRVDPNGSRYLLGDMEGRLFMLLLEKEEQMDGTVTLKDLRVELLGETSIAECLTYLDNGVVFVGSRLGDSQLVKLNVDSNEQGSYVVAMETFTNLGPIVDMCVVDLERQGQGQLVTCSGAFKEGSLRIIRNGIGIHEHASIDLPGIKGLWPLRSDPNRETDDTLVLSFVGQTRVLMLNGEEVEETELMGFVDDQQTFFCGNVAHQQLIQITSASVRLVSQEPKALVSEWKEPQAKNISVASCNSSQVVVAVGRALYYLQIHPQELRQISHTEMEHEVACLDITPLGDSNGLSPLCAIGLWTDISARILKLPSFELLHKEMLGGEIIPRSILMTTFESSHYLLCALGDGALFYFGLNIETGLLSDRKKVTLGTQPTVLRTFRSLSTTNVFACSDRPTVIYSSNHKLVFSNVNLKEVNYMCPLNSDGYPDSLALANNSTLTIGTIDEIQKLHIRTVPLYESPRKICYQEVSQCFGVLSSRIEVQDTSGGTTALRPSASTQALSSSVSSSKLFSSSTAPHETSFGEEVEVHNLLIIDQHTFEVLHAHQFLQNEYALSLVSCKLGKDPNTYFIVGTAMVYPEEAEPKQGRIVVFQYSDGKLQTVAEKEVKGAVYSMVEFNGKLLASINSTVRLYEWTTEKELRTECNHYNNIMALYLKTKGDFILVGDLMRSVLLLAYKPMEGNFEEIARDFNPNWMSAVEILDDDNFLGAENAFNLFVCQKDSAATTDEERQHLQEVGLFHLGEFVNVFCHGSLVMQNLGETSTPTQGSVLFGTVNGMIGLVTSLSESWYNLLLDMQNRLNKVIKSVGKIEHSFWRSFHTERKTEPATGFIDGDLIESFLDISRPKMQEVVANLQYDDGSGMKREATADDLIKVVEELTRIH
T3 sequence (P48729 whole entry): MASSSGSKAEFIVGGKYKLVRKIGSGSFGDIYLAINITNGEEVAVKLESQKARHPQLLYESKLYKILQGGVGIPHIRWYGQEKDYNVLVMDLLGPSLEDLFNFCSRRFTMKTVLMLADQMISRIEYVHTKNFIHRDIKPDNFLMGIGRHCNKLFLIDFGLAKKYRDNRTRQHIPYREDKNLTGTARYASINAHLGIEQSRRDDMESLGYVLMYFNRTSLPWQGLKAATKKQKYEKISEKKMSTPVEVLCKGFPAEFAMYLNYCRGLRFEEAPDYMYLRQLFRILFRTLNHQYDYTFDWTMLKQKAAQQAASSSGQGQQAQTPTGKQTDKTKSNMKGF
T3 sequence (Q96SW2 whole entry): as the sequence (Q96SW2 whole entry) above
T3 sequence (Q16531 whole entry partner): as the sequence (Q16531 whole entry partner) above
T2 sequence (Q9UKS7 whole entry): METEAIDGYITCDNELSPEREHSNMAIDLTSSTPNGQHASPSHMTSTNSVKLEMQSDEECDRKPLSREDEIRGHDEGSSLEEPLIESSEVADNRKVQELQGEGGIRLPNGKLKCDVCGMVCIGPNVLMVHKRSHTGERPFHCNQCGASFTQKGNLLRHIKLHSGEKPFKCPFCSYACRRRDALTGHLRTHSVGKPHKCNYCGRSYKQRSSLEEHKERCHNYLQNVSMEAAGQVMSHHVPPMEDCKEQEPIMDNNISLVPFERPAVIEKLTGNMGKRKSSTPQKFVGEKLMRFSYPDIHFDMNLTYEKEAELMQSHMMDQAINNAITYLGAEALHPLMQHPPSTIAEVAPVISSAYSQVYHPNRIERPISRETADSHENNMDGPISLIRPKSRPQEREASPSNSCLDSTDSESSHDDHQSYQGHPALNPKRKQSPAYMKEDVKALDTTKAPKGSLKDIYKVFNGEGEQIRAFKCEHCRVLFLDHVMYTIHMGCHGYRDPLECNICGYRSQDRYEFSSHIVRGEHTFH
T2 sequence (Q96SW2 whole entry): as the sequence (Q96SW2 whole entry) above
T2 sequence (Q16531 whole entry partner): as the sequence (Q16531 whole entry partner) above
T1 sequence (Q13422 whole entry): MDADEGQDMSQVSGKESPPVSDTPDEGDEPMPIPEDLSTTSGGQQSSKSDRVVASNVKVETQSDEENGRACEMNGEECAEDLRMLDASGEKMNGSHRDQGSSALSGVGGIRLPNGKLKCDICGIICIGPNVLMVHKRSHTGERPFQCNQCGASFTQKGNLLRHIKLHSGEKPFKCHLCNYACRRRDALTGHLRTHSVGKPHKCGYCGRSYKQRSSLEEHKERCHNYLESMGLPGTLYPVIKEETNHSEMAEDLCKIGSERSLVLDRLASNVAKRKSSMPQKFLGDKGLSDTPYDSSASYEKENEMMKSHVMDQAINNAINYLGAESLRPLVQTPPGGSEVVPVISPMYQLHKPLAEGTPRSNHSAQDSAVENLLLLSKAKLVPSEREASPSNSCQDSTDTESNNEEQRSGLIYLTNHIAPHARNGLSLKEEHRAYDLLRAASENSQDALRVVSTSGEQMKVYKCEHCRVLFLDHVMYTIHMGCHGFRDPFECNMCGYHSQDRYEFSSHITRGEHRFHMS
T1 sequence (Q96SW2 whole entry): as the sequence (Q96SW2 whole entry) above
T1 sequence (Q16531 whole entry partner): as the sequence (Q16531 whole entry partner) above

Row | Structure (SMILES) | sensitivity of A2780 cells (in words) [1] | sensitivity of OCI-LY3 cells (in words) (DLBCL cell line OCI-LY3) | IKZF1% degradation at 100 nM (IKZF1) [%] | IKZF1% degradation at 1 μM (IKZF1) [%] | IKZF2% degradation at 100 nM (IKZF2) [%] | IKZF2% degradation at 1 μM (IKZF2) [%] | CK1α % degradation at 100 nM (CK1α) [%] | CK1α % degradation at 1 μM (CK1α) [%] | degradation activity for CK1α and/or IKZF2, while sparing IKZF1 and/or GSPT1 (in words) (CK1α and/or IKZF2) | GSPT1% degradation at 100 nM (GSPT1) [%] | GSPT1% degradation at 1 μM (GSPT1) [%] | solubility (in words) [2] | EC50 (DLBCL cell line OCI-LY3; Homo sapiens, 120 h) [nM] | IC50 (MOLM-13 cells) [nM] | EC50 [1] [nM] | EC50 (DLBCL cell line OCI-LY3) [nM] | EC50 [3] [nM]
1 | COc1ccc2cc(C(=O)Nc3ccc4c(c3)CN(C3CCC(=O)N(C)C3=O)C4=O)ccc2c1 (stereo not shown) [Me-DEG-35, 6-methoxy-N-(2-(1-methyl-2,6-dioxopiperidin-3-yl)-1-oxoisoindolin-5-yl)-2-naphthamide] | limited activity | limited activity | – | – | – | – | – | – | – | – | – | – | – | – | – | – | –
2 | O=C(/C=C/c1ccccc1)Nc1ccc2c(c1)CN(C1CCC(=O)NC1=O)C2=O (stereo not shown) [DEG-56, N-(2-(2,6-dioxopiperidin-3-yl)-1-oxoisoindolin-5-yl)cinnamamide] | – | – | 13.1 ± 0.8 | 29.4 ± 0.3 | 70.8 ± 0.3 | 89.6 ± 0.1 | 60.2 ± 2.3 | 67 ± 1.1 | good degradation activity | 7.6 ± 1.5 | 11.1 ± 1.3 | – | – | – | – | – | –
3 | O=C1CCC(N2Cc3cc(NC(=O)c4cc5ccccc5o4)ccc3C2=O)C(=O)N1 (stereo not shown) [DEG-59, N-(2-(2,6-dioxopiperidin-3-yl)-1-oxoisoindolin-5-yl)benzofuran-2-carboxamide] | – | – | 13.4 ± 0.6 | 26.5 ± 1.2 | 79.7 ± 0.1 | 92 ± 0.1 | 61.7 ± 2.4 | 63.3 ± 3.9 | good degradation activity | 2 ± 3.6 | −1 ± 3.4 | – | – | – | – | – | –
4 | O=C1CCC(N2Cc3cc(NC(=O)C4=Cc5ccccc5OC4)ccc3C2=O)C(=O)N1 (stereo not shown) [DEG-52, N-(2-(2,6-dioxopiperidin-3-yl)-1-oxoisoindolin-5-yl)-2H-chromene-3-carboxamide] | – | – | 15.2 ± 0.2 | 29.2 ± 0.5 | 83.9 ± 0.4 | 93.8 ± 0.1 | 68.4 ± 0.2 | 72.8 ± 0.1 | good degradation activity | 10.5 ± 1.7 | 12.2 ± 1.9 | – | – | – | – | – | –
5 | O=C1CCC(N2Cc3cc(NC(=O)c4ccc(Oc5ccccc5)cc4)ccc3C2=O)C(=O)N1 (stereo not shown) [DEG-61, N-(2-(2,6-dioxopiperidin-3-yl)-1-oxoisoindolin-5-yl)-4-phenoxybenzamide] | – | – | 5.2 ± 1 | 9.6 ± 0.5 | 78.4 ± 0.8 | 91.4 ± 0.1 | 60.9 ± 0.7 | 65.8 ± 1.2 | good degradation activity | 10.2 ± 2.8 | 16.9 ± 2.3 | – | – | – | – | – | –
6 | COc1ccc2cc(C(=O)Nc3ccc4c(c3)CN(C3CCC(=O)NC3=O)C4=O)ccc2c1 (stereo not shown) [DEG-35, N-(2-(2,6-dioxopiperidin-3-yl)-1-oxoisoindolin-5-yl)-6-methoxy-2-naphthamide] | – | – | – | – | – | – | – | – | – | – | – | limited solubility | 8 | 6 | – | – | –
7 | O=C1CCC(N2Cc3cc(NC(=O)c4cccc(Oc5ccccc5)c4)ccc3C2=O)C(=O)N1 (stereo not shown) [DEG-55, N-(2-(2,6-dioxopiperidin-3-yl)-1-oxoisindolin-5-yl)-3-phenoxybenzamide] | – | – | 62.1 ± 0.2 | 86.8 ± 0.4 | 73.9 ± 0.4 | 91.1 ± 0.1 | 57.6 ± 1.7 | 67.4 ± 1.4 | good degradation activity | 8.8 ± 0.8 | 14 ± 1.8 | – | – | – | – | – | –
8 | COc1cc(C(=O)O)ccc1NC(=O)[C@@H]1N[C@@H](CC(C)(C)C)[C@](C#N)(c2ccc(Cl)cc2F)[C@H]1c1cccc(Cl)c1F [idasanutlin, reference compound] | no demonstrable sensitivity | very limited sensitivity | – | – | – | – | – | – | – | – | – | – | – | – | – | – | –
9 | O=C1CCC(N2Cc3cc(CNC(=O)C(F)(F)c4ccc(Cl)cc4)ccc3C2=O)C(=O)N1 (stereo not shown) [CC-90009, reference compound] | – | – | – | – | – | – | – | – | – | – | – | – | – | – | 269 | 36 | 7
